In paper PMC8385015, “Tumour-on-chip microfluidic platform for assessment of drug pharmacokinetics and treatment response” (Communications Biology, 2021):
Where “and” joins values, the source holds several entries; their conditions need not be identical. Identical values can stand only once.

Key:
SW620 spheroids = test: SW620 spheroid viability (CellTiterGlo 3D), microfluidic Ibidi chip; assay type: cell-based
Source text: The tested schedules were designed to recapitulate mouse plasma PK profiles from similar schedules used in in vivo efficacy studies (Table 1) with a desire to reverse translate in vivo data and to evaluate the predictive ability of our microfluidic chip setup. […] We investigated changes in the spheroid volume, as well as viability using the CellTiterGlo assay. To evaluate whether our system could also be used to monitor treatment impact on pharmacodynamic biomarkers, we collected individual spheroids at the end of the treatment period and performed immunofluorescence analysis for γH2AX (DNA double strand break marker), cleaved caspase 3 (apoptosis) and Ki67 (proliferation marker), as detailed in “Methods” section and Supplementary Fig. 2. Each treatment condition was repeated at least three times and measurements for each condition were pooled from at least six spheroid replicates.
To mimic in vivo anti-cancer drugs PK profile at a constant flow rate, an 8-point concentration scale for specific durations was used. Each drug was delivered at a specific concentration, for a specific amount of time, consistent with the average concentration for the same durations in vivo, on a 24-h step schedule.
Each compound concentration/timing represented an average of the corresponding in vivo plasma values, measured by mass spectrometry (Supplementary Methods 4 and 5).
Spheroid viability assessment used a metabolic method (CellTiterGlo 3D, G9681, Promega) by measuring luminescence units expressed by individually recovered spheroids. Each chip bottom polymer film was cut using a scalpel and spheroids were individually collected and transferred in 25 µL media to the wells of a half area 96-well plate (1/2 AreaPlate-96, white, 6002290, Perkin-Elmer). CellTiterGlo vial was allowed to thaw (1 h, room temperature) and 25 µL reagent were added to each spheroid well. Plates were lidded with black sealing tape (Nunc, 731-0750, VWR) and placed on and orbital shaker for 40′. Luminescence levels were measured using a SpectraMax i3X (Molecular Devices, USA).

[1] = In vivo PK profile determination in mouse plasma (LC-MS/MS, population-based PK model); details: for In vivo drug free concentrations: SN38 after irinotecan 50 mg/kg
Description: The samples were collected at 5, 15, 40 min, and 1, 2, 4, 6, 8 and 24 h.
Whole blood was mixed 1:5 with PBS and centrifuged at 1500×g for 3 min at 4 °C, and the plasma was extracted and frozen at –80 °C.
Using this PK model, a time course of free plasma concentrations of both drugs was simulated (Table 1).
Acidified acetonitrile ([…]) was added with the internal standard, followed by centrifugation at 3000 rpm for 10 min. Supernatant ([…]) was then removed to a clean plate and dried under nitrogen. […]
Supplementary Method 8. Pharmacokinetic models parameters used for simulations
AZD156 PK model and PK parameters used for simulations

CCc1c2c(nc3ccc(O)cc13)-c1cc3c(c(=O)n1C2)COC(=O)[C@]3(O)CC [SN38]
spheroid viability (SW620 spheroids; Microfluidic Ibidi chip, 6 days, CellTiterGlo, replicates (Fig 2d raw data), unit not given): 62.9 and 51.36 and 50.85 and 54.46 and 62.33 and 64.07 (2×)
spheroid viability (SW620 spheroids; microfluidic chip, SN38 mono (1d), day 7, single spheroids): 6192690 RLU and 5479774 RLU and 8813513 RLU and 7953995 RLU and 8522809 RLU and 9260029 RLU and 5533818 RLU and 5710166 RLU
reduction in viability (SW620 spheroids; microfluidic, dosed to mimic in vivo PK profile, 6 days): ~ 40%
In vivo drug free concentrations ([1]; mouse plasma, time 1 h): 5.5 nM
In vivo drug free concentrations ([1]; mouse plasma, time 2 h): 4.7 nM
In vivo drug free concentrations ([1]; mouse plasma, time 3 h): 4.4 nM
In vivo drug free concentrations ([1]; mouse plasma, time 4 h): 4.1 nM
In vivo drug free concentrations ([1]; mouse plasma, time 5 h): 3.6 nM
In vivo drug free concentrations ([1]; mouse plasma, time 6 h): 3.1 nM
In vivo drug free concentrations ([1]; mouse plasma, time 7 h): 2.8 nM
In vivo drug free concentrations ([1]; mouse plasma, time 8 h): 2.4 nM
In vivo drug free concentrations ([1]; mouse plasma, time 9 h): 2.1 nM
In vivo drug free concentrations ([1]; mouse plasma, time 10 h): 1.9 nM
In vivo drug free concentrations ([1]; mouse plasma, time 11 h): 1.7 nM
In vivo drug free concentrations ([1]; mouse plasma, time 12 h): 1.6 nM
In vivo drug free concentrations ([1]; mouse plasma, time 13 h): 1.5 nM
In vivo drug free concentrations ([1]; mouse plasma, time 14 h): 1.4 nM
In vivo drug free concentrations ([1]; mouse plasma, time 15 h): 1.2 nM
In vivo drug free concentrations ([1]; mouse plasma, time 16 h): 1.1 nM
In vivo drug free concentrations ([1]; mouse plasma, time 17 h): 1.1 nM
In vivo drug free concentrations ([1]; mouse plasma, time 18 h): 0.9 nM
In vivo drug free concentrations ([1]; mouse plasma, time 19 h): 0.9 nM
In vivo drug free concentrations ([1]; mouse plasma, time 20 h): 0.8 nM
In vivo drug free concentrations ([1]; mouse plasma, time 21 h): 0.7 nM
In vivo drug free concentrations ([1]; mouse plasma, time 22 h): 0.7 nM
In vivo drug free concentrations ([1]; mouse plasma, time 23 h): 0.6 nM
In vivo drug free concentrations ([1]; mouse plasma, time 24 h): 0.6 nM
in vivo average measured concentration ([1]; mouse plasma, between 2-4h from treatment onset): 4.36 nM
Cmax ([1]; read-out: maximum mouse plasma concentration (Cmax), 50 mg/kg irinotecan (SN38), 10 mg/kg AZD0156): 5.5 nM
